Assay results reported in patent US20090068290A1, “BIFEPRUNOX DOSES FOR TREATING SCHIZOPHRENIA” (priority 2006, published 2009).

Tested on: adult subjects with schizophrenia
Assay: Adverse events (TEAE, SAE, discontinuation, EPS-related TEAE, anticholinergic use), Clinical Study One
Assay type: in vivo, human
Experimental: METHODOLOGY: This was a randomized, double-blind, fixed-dose, placebo-controlled, risperidone-referenced, parallel group, multi-center study in adult subjects with schizophrenia. There were five treatment groups in this study. […] Study medication was administered once daily. After Baseline measurements were performed, the titration phase was begun. Bifeprunox treated subjects were titrated up to 5 mg, 10 mg or 20 mg according to a standardized titration schedule (Day 1: 0.125 mg, Day 2: 0.25 mg, Day 3: 0.5 mg, Day 4: 1.0 mg, Day 5: 2.0 mg, Day 6: 5.0 mg, Day 7: 10.0 mg, Day 8: 20 mg).

O=c1[nH]c2cccc(N3CCN(Cc4cccc(-c5ccccc5)c4)CC3)c2o1 [Bifeprunox, 7-[4-([1,1′-biphenyl]-3-ylmethyl)-1-piperazinyl]-2(3H)-benzoxazolone]
(4%): Agitation Aggravated, % (BX 5 mg) | Agitation Aggravated, % (BX 10 mg)
(14%): DIZZINESS, % (BX 5 mg)
(7%): DIZZINESS, % (BX 20 mg)
(1%): EXTRAPYRAMIDAL DISORDER, % (BX 5 mg)
(50%): TEAE NERVOUS SYSTEM DISORDERS, % (10 mg, Safety Population)
(11%): Agitation, % (BX 5 mg) | Agitation, % (BX 20 mg)
(3%): TEAE Neck Pain, % (10 mg, Safety Population) | TEAE Akathisia, % (20 mg, Safety Population) | TEAE Pain in Limb, % (20 mg, Safety Population) | Anxiety Aggravated, % (BX 5 mg) | SOMNOLENCE, % (BX 5 mg) | TREMOR, % (BX 5 mg) | Anxiety Aggravated, % (BX 10 mg) | Syncope, % (BX 10 mg) | Memory Impairment, % (BX 20 mg)
(9%): Agitation, % (BX 10 mg) | SEDATION, % (BX 20 mg)
(8%): SEDATION, % (BX 10 mg)
(41%): PSYCHIATRIC DISORDERS, % (BX 5 mg)
(5%): Anxiety, % (BX 5 mg) | SEDATION, % (BX 5 mg) | SOMNOLENCE, % (BX 20 mg)
(30%): Headache Nos, % (BX 5 mg)
(40%): PSYCHIATRIC DISORDERS, % (BX 20 mg)
(35%): Headache Nos, % (BX 10 mg)
(<1%): TEAE Akathisia, % (5 mg, Safety Population) | TEAE Benign Skin Neoplasm Nos, % (5 mg, Safety Population) | TEAE Muscle Stiffness, % (5 mg, Safety Population) | TEAE Muscle Tightness, % (5 mg, Safety Population) | TEAE Neck Pain, % (5 mg, Safety Population) | TEAE Pain in Jaw, % (5 mg, Safety Population) | TEAE Pain in Limb, % (5 mg, Safety Population) | TEAE Skin Papilloma, % (5 mg, Safety Population) | TEAE Muscle Stiffness, % (10 mg, Safety Population) | TEAE Muscle Twitching, % (10 mg, Safety Population) | TEAE Musculoskeletal Discomfort, % (10 mg, Safety Population) | TEAE Myalgia, % (10 mg, Safety Population) | TEAE Pain in Jaw, % (10 mg, Safety Population) | TEAE Muscle Twitching, % (20 mg, Safety Population) | TEAE Myalgia, % (20 mg, Safety Population) | TEAE Sensation of Heaviness, % (20 mg, Safety Population) | Acute Psychosis, % (BX 5 mg) | Aggression, % (BX 5 mg) | Confusion, % (BX 5 mg) | DYSKINESIA, % (BX 5 mg) | Gait Abnormal Nos, % (BX 5 mg) | Parkinsonian Rest Tremor, % (BX 5 mg) | Syncope, % (BX 5 mg) | Trismus, % (BX 5 mg) | DYSKINESIA, % (BX 10 mg) | Hyperactivity Syndrome Aggravated, % (BX 10 mg) | Loss of Propriception, % (BX 10 mg) | Migraine Nos, % (BX 10 mg) | TARDIVE DYSKINESIA, % (BX 10 mg) | Adjustment Disorder Nos, % (BX 20 mg) | Affect Lability, % (BX 20 mg) | Aggression, % (BX 20 mg) | Agitation Aggravated, % (BX 20 mg) | Bruxism, % (BX 20 mg) | Confusion, % (BX 20 mg) | DYSARTHRIA, % (BX 20 mg) | Disturbance in Attention, % (BX 20 mg) | Dystonia, % (BX 20 mg) | Hypoaesthesia, % (BX 20 mg) | Oculogyric Crisis, % (BX 20 mg) | Parkinsonism, % (BX 20 mg) | TARDIVE DYSKINESIA, % (BX 20 mg) | TREMOR, % (BX 20 mg)
(6%): Anxiety, % (BX 20 mg)
(43%): TEAE NERVOUS SYSTEM DISORDERS, % (20 mg, Safety Population)
11%: subjects with at least one AE that led to discontinuation (bifeprunox 5 mg)
(10%): Anxiety, % (BX 10 mg) | DIZZINESS, % (BX 10 mg)
(2%): TEAE Muscle Twitching, % (5 mg, Safety Population) | TEAE NEOPLASMS BENIGN, MALIGNANT AND UNSPECIFIED (INCL CYSTS AND POLYPS), % (5 mg, Safety Population) | TEAE Akathisia, % (10 mg, Safety Population) | TEAE Pain in Limb, % (10 mg, Safety Population) | TEAE Muscle Spasms, % (20 mg, Safety Population) | TEAE Neck Pain, % (20 mg, Safety Population) | Gait Abnormal Nos, % (BX 10 mg) | SOMNOLENCE, % (BX 10 mg) | Anxiety Aggravated, % (BX 20 mg) | EXTRAPYRAMIDAL DISORDER, % (BX 20 mg) | Syncope, % (BX 20 mg)
(48%): TEAE NERVOUS SYSTEM DISORDERS, % (5 mg, Safety Population)
(32%): PSYCHIATRIC DISORDERS, % (BX 10 mg)
(25%): Headache Nos, % (BX 20 mg)
